Measured values from PMC2823959 (Analytical biochemistry, 2009).

Target: taurine/α-ketoglutarate dioxygenase (TauD) (Escherichia coli, UniProt P37610)
Test: UV difference absorption titration of apoprotein with global regression analysis
Format: binding

Chain of taurine/α-ketoglutarate dioxygenase (TauD) (P37610 2-283): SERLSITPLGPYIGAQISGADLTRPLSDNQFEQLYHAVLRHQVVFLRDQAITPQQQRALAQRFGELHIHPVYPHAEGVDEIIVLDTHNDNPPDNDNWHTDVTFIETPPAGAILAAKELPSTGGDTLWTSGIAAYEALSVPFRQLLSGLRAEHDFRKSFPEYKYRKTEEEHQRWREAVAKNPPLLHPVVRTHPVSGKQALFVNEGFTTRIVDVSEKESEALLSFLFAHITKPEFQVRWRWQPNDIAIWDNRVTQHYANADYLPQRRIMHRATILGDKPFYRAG

## NCCS(=O)(=O)O [taurine]
  Kd: 175 ± 10 µM
